Experiment [1] concerns the target T1, Recombinant human His-tagged Kat6a protein (amino acids 194-810) (Homo sapiens, UniProt Q92794).
T1 construct: Kat6a protein (amino acids 194-810); His
Nature of the experiment: Kat6a activity assay (TR-FRET, acetylation of Histone-H4-derived peptide). Type of experiment: biochemical. The settings on record: 60 mins at 22° C., 220 nM H4 peptide, 600 nM Acetyl Coenzyme A, read-out: KAT6A - DPF/HAT domain IC50 [mol/l] (arithmetic mean).

Experiment [2] relates to ESR1 transcription in MVLN cells. As to the kind of experiment: MVLN reporter assay: repression of ESR1 transcription (luciferase signal). Type of experiment: cell-based. The settings on record: Homo sapiens, MVLN, 24 h, luciferase signal after 24 h, read-out: MVLN reporter assay, IC50 [M] (arithmetic mean). An outline of the steps: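 MVLN cells, expressing ER and stably carrying a vitellogenin A2 ERE-luciferase reporter, treated with compound in duplicate; luciferase read after 24 h with Steadylite plus. Cell density checked in parallel by Alamar Blue fluorescence (530/590 nm, 2 h) before the luciferase read.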

The next experiment has as its system ZR-75-1 cells. As to the kind of experiment: ZR-75-1 proliferation assay. The format is cell-based. Conditions: Homo sapiens, ZR-75-1, 144 h, Alamar Blue, read-out: ZR75-1 proliferation assay, EC50 [M] (arithmetic mean). An excerpt:
(§1) For compound characterization cell survival assays were routinely run in two cell lines. ZR-75-1 is a breast carcinoma cell line containing a focal KAT6A amplification and high KAT6A protein expression. Proliferation of this cell line is inhibited upon treatment with KAT6A inhibitors. As a negative control cell line MDA-MB-436 were used. These cells carry a […] deletion of the KAT6A gene, have a low KAT6A protein expression and are not growth inhibited upon treatment with KAT6A inhibitors.
(§2) For measurements cell lines were plated at the below indicated concentration per […] in 96-well plates in a humidified incubator at 37° C. and 5% CO2.
ZR-75-1 (ATCC, CRL-1500; breast carcinoma); 3000 cells per well; culture medium: RPMI 1640 (Biochrom #FG 1215) medium containing 2.5% FBS (Biochrom #S0615).
(§3) Each sample was prepared as triplicate and rim wells were excluded. Plates were incubated at 37° C. and 5% CO2 for 144 h. Cell viability was measured by adding 10 μL of Alamar Blue Reagent (Invitrogen #DAL 1100) and plates were incubated for 2 h at 37° C. and 5% CO2. Fluorescence was measured at 590 nm wavelength with a Tecan Spark or Victor X3 MTP-Reader (PerkinElmer).

Another experiment has as its system LCLC97TM1. As to the kind of experiment: LCLC97TM1 proliferation assay. Type of experiment: cell-based. Conditions: Homo sapiens, LCLC-97TM1, LCLC97TM1; read-out: LCLC97TM1 proliferation assay; EC50 [M] (arithmetic mean).
In another experiment the test system is MDA-MB-436 cells. As to the kind of experiment: MDA-MB-436 proliferation assay (negative control cell line). Type of experiment: cell-based. The settings on record: Homo sapiens, 144 h, Alamar Blue, read-out: MDA-MB-436 proliferation assay, EC50 [M] (arithmetic mean).
Text: as §1, §2
MDA-MB-436 (CLS, 300278; breast adenocarcinoma); 3000 cells per well; culture medium: DMEM/Ham's F12 (Biochrom #FG 4815) medium containing 2.5% FBS (Biochrom #S0615).
as §3

T1 sequence (Q92794 194-810): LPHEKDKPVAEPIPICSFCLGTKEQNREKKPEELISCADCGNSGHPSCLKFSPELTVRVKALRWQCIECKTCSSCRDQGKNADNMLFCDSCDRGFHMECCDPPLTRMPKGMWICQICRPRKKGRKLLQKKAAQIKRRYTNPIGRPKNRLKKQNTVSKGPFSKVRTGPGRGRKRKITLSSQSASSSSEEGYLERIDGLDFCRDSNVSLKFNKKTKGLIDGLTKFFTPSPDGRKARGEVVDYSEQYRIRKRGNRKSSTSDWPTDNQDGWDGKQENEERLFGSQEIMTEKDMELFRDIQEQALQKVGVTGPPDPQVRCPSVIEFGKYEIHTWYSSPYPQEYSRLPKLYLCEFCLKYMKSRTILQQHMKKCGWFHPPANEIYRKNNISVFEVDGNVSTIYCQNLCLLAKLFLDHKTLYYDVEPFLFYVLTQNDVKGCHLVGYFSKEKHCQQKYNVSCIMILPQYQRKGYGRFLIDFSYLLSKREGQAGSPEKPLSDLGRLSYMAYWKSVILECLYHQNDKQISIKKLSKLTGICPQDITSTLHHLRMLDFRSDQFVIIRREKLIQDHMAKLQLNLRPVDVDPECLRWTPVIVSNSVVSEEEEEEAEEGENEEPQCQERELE

For the compound `Cc1ccc2cccc(S(=O)(=O)NC(=O)c3cc4c(F)cc(N5CCC5C(F)F)cc4o3)c2n1` (racemic) [Example 160, 6-[2-(Difluoromethyl)azetidin-1-yl]-4-fluoro-N-(2-methylquinoline-8-sulfonyl)-1-benzofuran-2-carboxamide (rac)], the IC50 in experiment [1] is 203 nM; in experiment [2] it was 1.45e-06 M. Besides, the values for the EC50 in the experiment with ZR-75-1 cells, in the experiment on LCLC97TM1 and in the experiment with MDA-MB-436 cells were 4.34e-06 M, > 2e-05 M and > 2e-05 M, respectively.
In the case of `Cc1ccc2cccc(S(=O)(=O)NC(=O)c3cc4c(F)cc(N5CCC5C(C)(C)O)cc4o3)c2n1` (racemic) [Example 161, 4-Fluoro-6-[2-(1-hydroxy-1-methyl-ethyl)azetidin-1-yl]-N-[(2-methyl-8-quinolyl)sulfonyl]benzofuran-2-carboxamide (rac)], the results for the IC50 in experiment [1] and in experiment [2] were 1090 nM and 5.92e-06 M, respectively. The EC50 with ZR-75-1 cells is 7.56e-06 M; in the experiment on LCLC97TM1 it was > 2e-05 M; in the experiment on MDA-MB-436 cells, > 2e-05 M.
As for `CCOc1ccccc1S(=O)(=O)NC(=O)c1cc2c(F)cc(N3CCC3C(C)(C)O)cc2o1` (racemic) [Example 162, N-(2-ethoxybenzene-1-sulfonyl)-4-fluoro-6-[2-(2-hydroxypropan-2-yl)azetidin-1-yl]-1-benzofuran-2-carboxamide (rac)], the IC50 in experiment [1] was 1990 nM; in experiment [2], 1.95e-05 M. In addition, the EC50 in the experiment on ZR-75-1 cells, with LCLC97TM1 and in the experiment with MDA-MB-436 cells was > 2e-05 M throughout.
With `CCOc1ccccc1S(=O)(=O)NC(=O)c1cc2c(F)cc(N3CCC3C(F)F)cc2o1` (racemic) [Example 163, 6-[2-(Difluoromethyl)azetidin-1-yl]-N-(2-ethoxybenzene-1-sulfonyl)-4-fluoro-1-benzofuran-2-carboxamide (rac)], the IC50 in experiment [1] came out at 862 nM; in experiment [2], 3.67e-06 M. For the same compound, the EC50 in the experiment on ZR-75-1 cells is 6.67e-06 M; in the experiment on LCLC97TM1, > 2e-05 M; with MDA-MB-436 cells it was > 2e-05 M.
In the case of `CC1CCN1c1cc(F)c2cc(C(=O)NS(=O)(=O)c3ccccc3)oc2c1` (racemic) [Example 220, N-(Benzenesulfonyl)-4-fluoro-6-(2-methylazetidin-1-yl)benzofuran-2-carboxamide (rac)], the IC50 in experiment [1] is 982 nM; in experiment [2] it was 6.23e-06 M. Besides, the EC50 with MDA-MB-436 cells was > 2e-05 M.
The matching figures for `Cc1ccc2cccc(S(=O)(=O)NC(=O)c3cc4c(F)cc(N5CCC5C)cc4o3)c2n1` (racemic) [Example 221, 4-Fluoro-6-(2-methylazetidin-1-yl)-N-[(2-methyl-8-quinolyl)sulfonyl]benzofuran-2-carboxamide (rac)]: 61.5 nM, 3.82e-07 M and > 2e-05 M.
The matching figures for `CC1CCN1c1cc(F)c2cc(C(=O)NS(=O)(=O)c3ccccc3-c3ccccc3)oc2c1` (racemic) [Example 222, 4-Fluoro-6-(2-methylazetidin-1-yl)-N-(2-phenylphenyl)sulfonyl-benzofuran-2-carboxamide (rac)]: 129 nM, 1.44e-06 M and > 2e-05 M.
As for `CCOc1ccccc1S(=O)(=O)NC(=O)c1cc2c(F)cc(N3CCC3C)cc2o1` (racemic) [Example 223, N-(2-Ethoxyphenyl)sulfonyl-4-fluoro-6-(2-methylazetidin-1-yl)benzofuran-2-carboxamide (rac)], the IC50 in experiment [1] is 189 nM; in experiment [2], 7.22e-07 M. The EC50 in the experiment on MDA-MB-436 cells is > 2e-05 M.
Take `O=C(NS(=O)(=O)c1ccccc1-c1ccccc1)c1cc2c(F)cc(N3CCC3)cc2o1` [Example 19, 6-(Azetidin-1-yl)-N-([1,1′-biphenyl]-2-sulfonyl)-4-fluoro-1-benzofuran-2-carboxamide]: the IC50 in experiment [1] is 18.8 nM; in experiment [2], 2.06e-07 M. Also, in the experiment with MDA-MB-436 cells, the EC50 is > 2e-05 M.
Regarding `CCOc1ccccc1S(=O)(=O)NC(=O)c1cc2ccc(N3CC(C)(F)C3)cc2o1` [Example 116, N-(2-Ethoxybenzene-1-sulfonyl)-6-(3-fluoro-3-methylazetidin-1-yl)-1-benzofuran-2-carboxamide], the results for the IC50 in experiment [1] and in experiment [2] were 2290 nM and 1.45e-06 M, respectively. In addition, the EC50 was 5.72e-06 M with ZR-75-1 cells and > 2e-05 M in the experiment on LCLC97TM1.
As to `CCOc1ccccc1S(=O)(=O)NC(=O)c1cc2ccc(N3CC(c4ccccc4)C3)cc2o1` [Example 120, N-(2-ethoxybenzene-1-sulfonyl)-6-(3-phenylazetidin-1-yl)-1-benzofuran-2-carboxamide], the IC50 in experiment [1] is 6520 nM; in experiment [2], > 2e-05 M. Further, the EC50 with MDA-MB-436 cells was > 2e-05 M.
For `CCOc1ccccc1S(=O)(=O)NC(=O)c1cc2ccc(N3CC4(CC4)C3)cc2o1` [Example 122, 6-(5-Azaspiro[2.3]hexan-5-yl)-N-(2-ethoxybenzene-1-sulfonyl)-1-benzofuran-2-carboxamide], the figures for the IC50 in experiment [1] and in experiment [2] were > 20000 nM and > 2e-05 M, respectively. Further, the EC50 in the experiment on MDA-MB-436 cells is > 2e-05 M.
For the compound `CCOc1ccccc1S(=O)(=O)NC(=O)c1cc2ccc(N3CC(C)(C)C3)cc2o1` [Example 124, 6-(3,3-dimethylazetidin-1-yl)-N-(2-ethoxybenzene-1-sulfonyl)-1-benzofuran-2-carboxamide], the results for the IC50 in experiment [1] and in experiment [2] were > 20000 nM and > 2e-05 M, respectively. For the same compound, the EC50 in the experiment on MDA-MB-436 cells is > 2e-05 M.
`COc1ccc(C(C)(C)C)cc1S(=O)(=O)NC(=O)c1cc2c(F)cc(N3CCC3)cc2o1` [Example 127, 6-(Azetidin-1-yl)-N-(5-tert-butyl-2-methoxybenzene-1-sulfonyl)-4-fluoro-1-benzofuran-2-carboxamide]: the IC50 in experiment [2] turned out to be 3.54e-09 M. The EC50 was 2.55e-08 M in the experiment with ZR-75-1 cells, 5.73e-08 M in the experiment with LCLC97TM1 and > 2e-05 M in the experiment on MDA-MB-436 cells.
Turning to `CCOc1ccc(Br)cc1S(=O)(=O)NC(=O)c1cc2c(F)cc(N3CCC3)cc2o1` [Example 135, 6-(Azetidin-1-yl)-N-(5-bromo-2-ethoxybenzene-1-sulfonyl)-4-fluoro-1-benzofuran-2-carboxamide], the IC50 in experiment [1] came to 16.5 nM; in experiment [2], 9.74e-08 M. In addition, the EC50 in the experiment with MDA-MB-436 cells is > 2e-05 M.
Taken in the same sequence, the figures for `CCc1cccc(OC)c1S(=O)(=O)NC(=O)c1cc2c(F)cc(N3CCC3)cc2o1` [Example 136, 6-(azetidin-1-yl)-N-(2-ethyl-6-methoxybenzene-1-sulfonyl)-4-fluoro-1-benzofuran-2-carboxamide] were 45.6 nM, 1.4e-07 M and > 2e-05 M.
Taken in the same sequence, the figures for `O=C(NS(=O)(=O)c1ccccc1OC(F)(F)F)c1cc2c(F)cc(N3CCC3)cc2o1` [Example 138, 6-(Azetidin-1-yl)-4-fluoro-N-[2-(trifluoromethoxy)benzene-1-sulfonyl]-1-benzofuran-2-carboxamide] were 69.4 nM, 2.06e-07 M and > 2e-05 M.
The matching figures for `O=C(NS(=O)(=O)c1cccc2c1OC(F)(F)C(F)(F)O2)c1cc2c(F)cc(N3CCC3)cc2o1` [Example 140, 6-(Azetidin-1-yl)-4-fluoro-N-(2,2,3,3-tetrafluoro-2,3-dihydro-1,4-benzodioxine-5-sulfonyl)-1-benzofuran-2-carboxamide]: 27.6 nM, 2.91e-07 M and > 2e-05 M.
Regarding `CC1(C)CCN1c1cc(F)c2cc(C(=O)NS(=O)(=O)c3ccccc3)oc2c1` [Example 216, N-(benzenesulfonyl)-6-(2,2-dimethylazetidin-1-yl)-4-fluoro-benzofuran-2-carboxamide], the IC50 in experiment [1] was 9560 nM; in experiment [2], > 2e-05 M. Further, the EC50 in the experiment on MDA-MB-436 cells was > 2e-05 M.
Take `Cc1ccc2cccc(S(=O)(=O)NC(=O)c3cc4c(F)cc(N5CCC5(C)C)cc4o3)c2n1` [Example 218, 6-(2,2-Dimethylazetidin-1-yl)-4-fluoro-N-[(2-methyl-8-quinolyl)sulfonyl]benzofuran-2-carboxamide]: the IC50 in experiment [1] turned out to be 271 nM; in experiment [2], 1.91e-06 M. Besides, in the experiment with MDA-MB-436 cells, the EC50 was > 2e-05 M.
The matching figures for `CCOc1ccccc1S(=O)(=O)NC(=O)c1cc2c(F)cc(N3CCC3(C)C)cc2o1` [Example 219, 6-(2,2-Dimethylazetidin-1-yl)-N-(2-ethoxyphenyl)sulfonyl-4-fluoro-benzofuran-2-carboxamide]: 1850 nM, 3.86e-06 M and > 2e-05 M.

The values above are taken from patent publication US20240279207A1, “SUBSTITUTED ACYL SULFONAMIDES FOR TREATING CANCER” (The Broad Institute, Inc., priority 2020, published 2024).
